# Source: ChEMBL document CHEMBL5325454, “Synthesis, anti-ferroptosis, anti-quorum sensing, antibacterial and DNA interaction studies of chromene-hydrazone derivatives” (Bioorg Med Chem, 2023)
# Active and inactive are the calls of the source. No cut-off for these calls is given here.
# Key:
# HaCaT [1] = assay: Anti-ferroptotic activity against Erastin-induced ferroptosis in human HaCaT cells assessed as increase in cell viability at 5 uM preincubated with compound for 4 hrs followed by […] administration and measured after 24 hrs by MTT assay; assay type: functional, cell-based; settings: time 28.0 hrs
# Calf thymus DNA [2] = assay: Binding affinity to calf thymus DNA assessed as apparent binding constant upto 30 uM by UV-Vis spectroscopic analysis; assay type: nucleic-acid assay; settings: Bos taurus
# Vibrio harveyi [3] = assay: Antibacterial activity against Vibrio harveyi BB120 assessed as inhibition of bacterial growth upto 250 uM measured at 24 hrs by broth microdilution assay; assay type: functional, organism-based
# DNA [4] = assay: Induction of Escherichia coli supercoiled pBR322 DNA cleavage assessed as cleavage of DNA into open-circular forms in presence of Copper(II)acetate incubated overnight by GelRed DNA gel staining based electrophoresis analysis; assay type: nucleic-acid assay
# DNA [5] = assay: Induction of Escherichia coli supercoiled pBR322 DNA cleavage in absence of Cu2+ ion incubated overnight by GelRed DNA gel staining based electrophoresis analysis; assay type: nucleic-acid assay
# Calf thymus DNA [6] = assay: Binding affinity to calf thymus DNA assessed as hyperchromicity by UV-Vis spectroscopic analysis; assay type: nucleic-acid assay; settings: Bos taurus; dose <= 30.0 µM
# [7] = Inhibition of quorum sensing system in Vibrio harveyi BB120 assessed as reduction in luminescence incubated for 5 hrs under shaking condition by luminescence microplate reader analysis
# HaCaT [8] = assay: Anti-ferroptotic activity against Erastin-induced ferroptosis in human HaCaT cells assessed as increase in cell viability at 5 uM preincubated with compound for 4 hrs followed by […] administration and measured after 24 hrs by MTT assay relative to control; assay type: functional; settings: time 28 hrs
# Vibrio harveyi [9] = assay: Antibacterial activity against Vibrio harveyi BB120 assessed as inhibition of bacterial growth measured at 24 hrs by broth microdilution assay; assay type: functional
# HaCaT [10] = assay: Anti-ferroptotic activity against Erastin-induced ferroptosis in human HaCaT cells assessed as cell viability at 5 uM preincubated with compound for 4 hrs followed by […] administration and measured after 24 hrs by MTT assay relative to control; assay type: functional; settings: time 28 hrs
# Staphylococcus aureus [11] = assay: Antibacterial activity against methicillin-resistant Staphylococcus aureus MW2 assessed as zone of inhibition incubated overnight by disc diffusion assay; assay type: functional
# Escherichia coli = assay: Antibacterial activity against Escherichia coli assessed as inhibition of bacterial growth; assay type: functional, organism-based
# Staphylococcus aureus [12] = assay: Antibacterial activity against methicillin-resistant Staphylococcus aureus MW2 assessed as inhibition of bacterial growth measured at 24 hrs by broth microdilution assay; assay type: functional
# Vibrio harveyi [13] = assay: Antibacterial activity against Vibrio harveyi BB120 assessed as inhibition of bacterial growth at 1 to 1024 ug/ml measured at 24 hrs by broth microdilution assay; assay type: functional, organism-based; settings: dose 1-1024 µg/ml
Activity (DNA [4]),Activity (DNA [5]),MIC (Vibrio harveyi [9]) [µM],inhibition [7],Structure (SMILES),Activity (HaCaT [8]) [%],also measured
Active,inactive,–,–,CC1(C)C=Cc2c(ccc(/C=N/NS(=O)(=O)c3ccc(C(F)(F)F)cc3)c2O)O1,–,Activity (HaCaT [1]): inactive; Kapp (Calf thymus DNA [2]): 6.02 10^3/M; Activity (Vibrio harveyi [3]): inactive; Activity (Calf thymus DNA [6]): Dose-Dependent Effect; IC50 [7]: > 250 µM
Active,inactive,15.6,inactive,CC1(C)C=Cc2c(ccc(/C=N/NC(=O)c3ccncc3)c2O)O1,34,–
Active,inactive,–,–,CC1(C)C=Cc2c(ccc(/C=N/NC(N)=O)c2O)O1,–,Kapp (Calf thymus DNA [2]): 9.55 10^3/M; Activity (Vibrio harveyi [3]): inactive; Activity (Calf thymus DNA [6]): Dose-Dependent Effect; Activity (HaCaT [10]): 18%; IC50 [7]: 27 µM
Active,inactive,7.8,inactive,CC1(C)C=Cc2c(ccc(/C=N/NC(=O)c3ccccc3)c2O)O1,44,–
Active,inactive,–,–,Cc1ccc(S(=O)(=O)N/N=C/c2ccc3c(c2O)C=CC(C)(C)O3)cc1,–,Activity (HaCaT [1]): inactive; Activity (Vibrio harveyi [3]): inactive; IC50 [7]: > 250 µM
Active,inactive,> 250,inactive,Cc1ccc(C(=O)N/N=C/c2ccc3c(c2O)C=CC(C)(C)O3)cc1,44,–
Active,inactive,62.5,inactive,Cc1cc(C(=O)N/N=C/c2ccc3c(c2O)C=CC(C)(C)O3)ccc1[N+](=O)[O-],34,–
–,–,–,–,O=c1c(O)c(-c2ccc(O)c(O)c2)oc2cc(O)ccc12 [FISETIN],42,–
Active,inactive,3.9,inactive,CC1(C)C=Cc2c(ccc(/C=N/NC(=O)c3ccc(O)cc3)c2O)O1,44,–
Active,inactive,–,inactive,COc1ccc(C(=O)N/N=C/c2ccc3c(c2O)C=CC(C)(C)O3)cc1,44,Activity (Vibrio harveyi [13]): inactive
Active,inactive,–,inactive,CC1(C)C=Cc2c(ccc(/C=N/NC(=O)c3ccc(Br)cc3)c2O)O1,44,Activity (Vibrio harveyi [13]): inactive
Active,inactive,10,inactive,CC1(C)C=Cc2c(ccc(/C=N/NC(=O)c3cccnc3)c2O)O1,34,–
Active,inactive,> 250,inactive,CC1(C)C=Cc2c(ccc(/C=N/NC(=O)c3ccc(Cl)cc3)c2O)O1,44,–
Active,inactive,–,inactive,CC1(C)C=Cc2c(ccc(/C=N/NC(=O)c3ccc(C(C)(C)C)cc3)c2O)O1,44,Activity (Vibrio harveyi [13]): inactive
Active,inactive,–,inactive,CC1(C)C=Cc2c(ccc(/C=N/NC(=O)c3ccccn3)c2O)O1,34,Activity (Vibrio harveyi [13]): inactive
Active,inactive,–,inactive,CC1(C)C=Cc2c(ccc(/C=N/NC(=O)c3ccc([N+](=O)[O-])cc3)c2O)O1,34,Activity (Vibrio harveyi [13]): inactive
Active,inactive,–,–,CC1(C)C=Cc2c(ccc(/C=N/NS(=O)(=O)c3ccccc3)c2O)O1,–,Activity (Vibrio harveyi [3]): inactive; IC50 [7]: 22 µM
Active,inactive,125,inactive,CC1(C)C=Cc2c(ccc(/C=N/NC(N)=S)c2O)O1,54,–
Active,inactive,40,inactive,CC(=O)N/N=C/c1ccc2c(c1O)C=CC(C)(C)O2,–,Activity (HaCaT [1]): Active

Structure (SMILES),Activity (DNA [4]),Activity (DNA [5]),MIC (Vibrio harveyi [9]) [µM],inhibition [7],Activity (HaCaT [8]) [%],also measured
CC1(C)C=Cc2c(ccc(/C=N/NC(=O)c3ccc(O)cc3O)c2O)O1,Active,inactive,10,inactive,34,Kapp (Calf thymus DNA [2]): 5.73 10^3/M; inhibition zone (IZ) (Staphylococcus aureus [11]): 11 mm; Activity (Escherichia coli): inactive; MIC (Staphylococcus aureus [12]): 64 µg/mL; Activity (Calf thymus DNA [6]): Dose-Dependent Effect
